Tests used:
Assay type in all cases: cell-based
E. coli DH5α = experiment: Antibacterial activity: MIC and growth curve against E. coli DH5α in 96-well plate; conditions: minimal inhibitory concentration against E. coli DH5α; 96-well plate, 5×10^5 CFU/mL, 37° C., judged after 8 h
In short: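 Log-phase bacteria (OD600 ~0.5) resuspended in LB at 5×10^5 CFU/mL, exposed to recombinant protein at 50, 25, 12.5 μg/mL final in triplicate, 37 °C shaking at 175 rpm. OD600 read every 30 min; MIC is lowest concentration showing no growth.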

E. coli BL21 = experiment: MIC against Gram-negative bacteria: E. coli BL21; conditions: E. coli BL21; for MIC against E. coli BL21 / MIC (μg/mL) E. coli BL21: 5×10^5 CFU/mL
In short: (§1)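 Bacteria grown in LB at 37° C with shaking to McFarland 0.5, pelleted and resuspended in fresh LB, then seeded at 5×10^5 CFU/mL per well. Purified recombinant human EGF domain proteins were two-fold serially diluted in triplicate and plates shaken at 37° C, 175 rpm. MIC is the lowest protein concentration with no bacterial growth.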

Pseudomonas aeruginosa = experiment: MIC against Gram-negative bacteria: Pseudomonas aeruginosa; conditions: for MIC against P. aeruginosa / MIC (μg/mL) P. aeruginosa: 5×10^5 CFU/mL
In short: as §1

Klebsiella pneumonia = experiment: MIC against Gram-negative bacteria: Klebsiella pneumonia; conditions: for MIC against K. pneumonia / MIC (μg/mL) K. pneumonia: 5×10^5 CFU/mL
In short: as §1

Enterobacter cloacae = experiment: MIC against Gram-negative bacteria: Enterobacter cloacae; conditions: for MIC against E. cloacae / MIC (μg/mL) E. cloacae: 5×10^5 CFU/mL
In short: as §1

Aeromonas hydrophila = experiment: MIC against Gram-negative bacteria: Aeromonas hydrophila; conditions: for MIC against A. hydrophila / MIC (μg/mL) A. hydrophila: 5×10^5 CFU/mL
In short: as §1

Citrobacter diversus = experiment: MIC against Gram-negative bacteria: Citrobacter diversus; conditions: for MIC against C. diversus / MIC (μg/mL) C. diversus: 5×10^5 CFU/mL
In short: as §1

Moraxella catarrhalis = experiment: MIC against Gram-negative bacteria: Moraxella catarrhalis; conditions: for MIC against M. catarrhalis / MIC (μg/mL) M. catarrhalis: 5×10^5 CFU/mL
In short: as §1

Proteus mirabilis = experiment: MIC against Gram-negative bacteria: Proteus mirabilis; conditions: for MIC against P. mirabilis / MIC (μg/mL) P. mirabilis: 5×10^5 CFU/mL
In short: as §1

Proteus vulgaris = experiment: MIC against Gram-negative bacteria: Proteus vulgaris; conditions: for MIC against P. vulgaris / MIC (μg/mL) P. vulgaris: 5×10^5 CFU/mL
In short: as §1

Serratia marcescens = experiment: MIC against Gram-negative bacteria: Serratia marcescens; conditions: for MIC against S. marcescens / MIC (μg/mL) S. marcescens: 5×10^5 CFU/mL
In short: as §1

[1] = Pseudomonas aeruginosa, 10 h cultivation at 37° C.
[2] = Klebsiella pneumonia, 10 h cultivation at 37° C.
[3] = Enterobacter cloacae, 10 h cultivation at 37° C.
[4] = Aeromonas hydrophila, 10 h cultivation at 37° C.
[5] = Citrobacter diversus, 10 h cultivation at 37° C.
[6] = Moraxella catarrhalis, 10 h cultivation at 37° C.
[7] = Proteus mirabilis, 10 h cultivation at 37° C.
[8] = Proteus vulgaris, 10 h cultivation at 37° C.
[9] = Serratia marcescens, 10 h cultivation at 37° C.
[10] = P. aeruginosa, 10 h cultivation at 37° C.
[11] = K. pneumonia, 10 h cultivation at 37° C.
[12] = E. cloacae, 10 h cultivation at 37° C.
[13] = A. hydrophila, 10 h cultivation at 37° C.
[14] = C. diversus, 10 h cultivation at 37° C.
[15] = M. catarrhalis, 10 h cultivation at 37° C.
[16] = P. mirabilis, 10 h cultivation at 37° C.
[17] = P. vulgaris, 10 h cultivation at 37° C.
[18] = S. marcescens, 10 h cultivation at 37° C.
[19] = Pseudomonas aeruginosa, 96-well plate, 37° C., 10 h
[20] = Klebsiella pneumonia, 96-well plate, 37° C., 10 h
[21] = Enterobacter cloacae, 96-well plate, 37° C., 10 h
[22] = Aeromonas hydrophila, 96-well plate, 37° C., 10 h
[23] = Citrobacter diversus, 96-well plate, 37° C., 10 h
[24] = Moraxella catarrhalis, 96-well plate, 37° C., 10 h
[25] = Proteus mirabilis, 96-well plate, 37° C., 10 h
[26] = Proteus vulgaris, 96-well plate, 37° C., 10 h
[27] = Serratia marcescens, 96-well plate, 37° C., 10 h

Substance	MIC (E. coli DH5α) [µg/mL]	MIC against E. coli BL21 (E. coli BL21; 10 h cultivation at 37° C.) [µg/mL]	MIC against P. aeruginosa (Pseudomonas aeruginosa; [1]) [µg/mL]	MIC against K. pneumonia (Klebsiella pneumonia; [2]) [µg/mL]	MIC against E. cloacae (Enterobacter cloacae; [3]) [µg/mL]	MIC against A. hydrophila (Aeromonas hydrophila; [4]) [µg/mL]	MIC against C. diversus (Citrobacter diversus; [5]) [µg/mL]	MIC against M. catarrhalis (Moraxella catarrhalis; [6]) [µg/mL]	MIC against P. mirabilis (Proteus mirabilis; [7]) [µg/mL]	MIC against P. vulgaris (Proteus vulgaris; [8]) [µg/mL]	MIC against S. marcescens (Serratia marcescens; [9]) [µg/mL]	MIC (μg/mL) E. coli BL21 (E. coli BL21; 96-well plate, 37° C., 10 h) [µg/mL]	MIC (μg/mL) P. aeruginosa (Pseudomonas aeruginosa; [19]) [µg/mL]	MIC (μg/mL) K. pneumonia (Klebsiella pneumonia; [20]) [µg/mL]	MIC (μg/mL) E. cloacae (Enterobacter cloacae; [21]) [µg/mL]	MIC (μg/mL) A. hydrophila (Aeromonas hydrophila; [22]) [µg/mL]	MIC (μg/mL) C. diversus (Citrobacter diversus; [23]) [µg/mL]	MIC (μg/mL) M. catarrhalis (Moraxella catarrhalis; [24]) [µg/mL]	MIC (μg/mL) P. mirabilis (Proteus mirabilis; [25]) [µg/mL]	MIC (μg/mL) P. vulgaris (Proteus vulgaris; [26]) [µg/mL]	other results
PRT1371 (GTRACPGDCRGRGRCVDGRCVCNPGFTGEDC; listed as Homo sapiens)	50	12.5	12.5	12.5	12.5	12.5	100	12.5	12.5	12.5	12.5	–	–	–	–	–	–	–	–	–	–
PRT1453 (DVDECAEPGLSHCHALATCVNVVGSYLCVCPAGYRGDGWHCE; listed as Homo sapiens)	25	12.5	25	50	25	12.5	25	50	12.5	25	12.5	–	–	–	–	–	–	–	–	–	–
PRT258 (CSHPDRGGCSENAECVPGSLGTHHCTCHKGWSGDGRVC; listed as Homo sapiens)	50	–	–	–	–	–	–	–	–	–	–	–	–	–	–	–	–	–	–	–	MIC (μg/mL) E. coli BL21 (E. coli BL21; 10 h cultivation at 37° C.): 12.5 µg/mL; MIC (μg/mL) P. aeruginosa (Pseudomonas aeruginosa; [10]): 50 µg/mL; MIC (μg/mL) K. pneumonia (Klebsiella pneumonia; [11]): 12.5 µg/mL; MIC (μg/mL) E. cloacae (Enterobacter cloacae; [12]): 50 µg/mL; MIC (μg/mL) A. hydrophila (Aeromonas hydrophila; [13]): 12.5 µg/mL; MIC (μg/mL) C. diversus (Citrobacter diversus; [14]): 25 µg/mL; MIC (μg/mL) M. catarrhalis (Moraxella catarrhalis; [15]): 12.5 µg/mL; MIC (μg/mL) P. mirabilis (Proteus mirabilis; [16]): 25 µg/mL; MIC (μg/mL) P. vulgaris (Proteus vulgaris; [17]): 50 µg/mL; MIC (μg/mL) S. marcescens (Serratia marcescens; [18]): 25 µg/mL
PRT126 (IIDRCVPNHCEHGGKCSQTWDSFKCTCDETGYSGATCH; listed as Homo sapiens)	12.5	–	–	–	–	–	–	–	–	–	–	50	12.5	50	12.5	12.5	12.5	100	25	12.5	MIC (μg/mL) S. marcescens (Serratia marcescens; [27]): 25 µg/mL
PRT1009 (DVDECLDQPCHPTGTAACHSLANAFYCQCLPGHTGQWCE; listed as Homo sapiens)	25	–	–	–	–	–	–	–	–	–	–	–	–	–	–	–	–	–	–	–	MIC (E. coli BL21; 10 h cultivation at 37° C.): 12.5 µg/mL; MIC (Pseudomonas aeruginosa; [10]): 50 µg/mL; MIC (Klebsiella pneumonia; [11]): 12.5 µg/mL; MIC (Enterobacter cloacae; [12]): 50 µg/mL; MIC (Aeromonas hydrophila; [13]): 25 µg/mL; MIC (Citrobacter diversus; [14]): 12.5 µg/mL; MIC (Moraxella catarrhalis; [15]): 25 µg/mL; MIC (Proteus mirabilis; [16]): 50 µg/mL; MIC (Proteus vulgaris; [17]): 25 µg/mL; MIC (Serratia marcescens; [18]): 100 µg/mL
PRT94 (DVNECNAHPCFPRVRCINTSPGFRCEACPPGYSGPTHQGVGLAFAKANKQVCT; listed as Homo sapiens)	12.5	–	–	–	–	–	–	–	–	–	–	12.5	12.5	12.5	50	12.5	50	25	12.5	25	MIC (μg/mL) S. marcescens (Serratia marcescens; [27]): 50 µg/mL
